Measured values taken from patent publication US20120295291A1, “Method for Determining the Risk of Clopidogrel Resistance” (SIEMENS HEALTHCARE DIAGNOSTICS PRODUCTS GMBH, priority 2011, published 2012).
Where two headings read alike, the source gives them in different places.

Tested on: thrombocytes (thrombocyte activity; ADP receptor P2Y12)
Conditions: for patients studied clopidogrel-resistant (closure time below cut-off after intake of clopidogrel): INNOVANCE PFA P2Y cartridges, after 300 or 600 mg clopidogrel loading dose, cut-off 106 s

COC(=O)[C@H](c1ccccc1Cl)N1CCc2sccc2C1 [clopidogrel, methyl (S)-α-(2-chlorophenyl)-6,7-dihydrothieno[3,2-c]pyridine-5(4H)-acetate]
relative risk of patient not responding to clopidogrel (Col/EPI closure time prior to intake 140 s (3.2% citrated blood), response by INNOVANCE PFA P2Y after intake in 3.8% citrated whole blood, p<0.0001): 2.64 | relative risk of patient not responding to clopidogrel (Col/EPI closure time prior to intake ≦140 s vs >140 s, 3.2% citrated whole blood, p<0.004): 1.78 | patients studied clopidogrel-resistant (closure time below cut-off after intake of clopidogrel) (3.2% citrated whole blood): 45.8% | patients studied clopidogrel-resistant (closure time below cut-off after intake of clopidogrel) (3.8% citrated whole blood): 37.5% | relative risk of patient not responding to clopidogrel (INNOVANCE PFA P2Y closure time prior to intake ≦59 s vs >59 s, 3.8% citrated whole blood, p<0.002): 1.98 | relative risk of patient not responding to clopidogrel (INNOVANCE PFA P2Y closure time prior to intake ≦60 s vs >60 s, 3.2% citrated whole blood, p<0.02): 1.61 | relative risk of patient not responding to clopidogrel (patients undergoing ASA therapy, Col/ADP closure time prior to intake ≦91 s vs >91 s, 3.2% citrated whole blood, p=0.06): 1.47
